Assay results from US8207188B2, “Treatment of diseases modulated by a H4 receptor agonist” (priority 2006, dated 2012).
“Also recorded” adds a separate entry of the source.

What was measured:
[1] = test system: Mouse medullary cells C57B1/6 expressing H4R; test: Proliferation of Colony Forming Cells (CFC) in semi-solid media; format: cell-based; settings: 7 days; for inhibitory activity of cell proliferation (CFC): Example 20
Experimental: Using the assay described in Example 15, above, the effect of TRQ or CB on cells expressing H4R was tested. Mouse medullary cells C57B1/6 expressing H4R (50,000 cells/Petri dish) were incubated in a semi-solid media with haematopoietic growth factors (IL-3: 10 ng/ml) for 7 days with TRQ or CB.
Using the assay described in Example 15, above, the effect of TRQ or CB on cells expressing H4R was tested. Mouse medullary cells C57B1/6 expressing H4R (50,000 cells/Petri dish) were incubated in a semi-solid media with haematopoietic growth factors (IL-3: 10 ng/ml) for 7 days with a TRQ (racemic mixture of RR and SS isomers at 1 μM and 10 μM concentration); TRQ isomer E1 (10 μM concentration); TRQ isomer E2 (10 μM concentration) and CB (10 μM concentration).

[2] = molecular target: T1, Serotonin Transporter (SERT) (Mus musculus, UniProt Q60857); test: Serotonin uptake by bone marrow cells; format: cell-based, murine
T1 construct: from tissue; host or cells: total bone marrow cells
T1 sequence (Q60857 whole entry): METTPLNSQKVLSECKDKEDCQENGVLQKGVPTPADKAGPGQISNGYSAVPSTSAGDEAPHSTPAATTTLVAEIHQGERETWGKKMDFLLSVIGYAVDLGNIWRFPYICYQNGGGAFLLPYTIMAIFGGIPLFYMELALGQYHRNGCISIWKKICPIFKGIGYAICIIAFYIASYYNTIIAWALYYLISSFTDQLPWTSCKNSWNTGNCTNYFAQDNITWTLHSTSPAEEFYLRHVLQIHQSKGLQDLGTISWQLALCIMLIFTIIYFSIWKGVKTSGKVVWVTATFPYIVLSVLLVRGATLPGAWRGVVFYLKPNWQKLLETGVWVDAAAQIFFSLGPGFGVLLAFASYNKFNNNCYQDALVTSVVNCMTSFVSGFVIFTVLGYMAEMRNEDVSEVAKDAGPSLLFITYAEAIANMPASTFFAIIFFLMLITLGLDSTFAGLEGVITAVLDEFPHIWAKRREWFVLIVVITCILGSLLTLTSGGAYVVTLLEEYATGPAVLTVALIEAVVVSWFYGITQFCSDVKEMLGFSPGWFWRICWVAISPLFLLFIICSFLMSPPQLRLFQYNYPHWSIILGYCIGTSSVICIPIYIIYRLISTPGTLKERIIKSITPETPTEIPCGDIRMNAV

[3] = test system: Mouse medullary cells C57B1/6 expressing H4R; test: Percentage of cells at G0/G1 phase, TRQ racemate and enantiomers with and without CB (Example 21); format: cell-based
Experimental: This experiment was conducted at two concentrations for all TRQ molecules (10 μM and 1 μM) in the presence and absence of CB (10 μM).
Using the assay described in Example 15, above, the effect of TRQ or CB on cells expressing H4R was tested. Mouse medullary cells C57B1/6 expressing H4R (50,000 cells/Petri dish) were incubated in a semi-solid media with haematopoietic growth factors such as IL-3 (10 ng/ml) for 7 days with a TRQ (racemic mixture of RR and SS isomers at 1 μM and 10 μM concentration); purified TRQ isomer E1 (10 μM and 1 μM concentration); purified TRQ isomer E2 (10 μM and 1 μM concentration) and CB (10 μM concentration). […] Similar results were shown with the purified TRQ isomers. In each experiment cells were incubated in the presence of growth factors (GF, FIG. 15).

[4] = test system: Mouse C57B1/6 Haematopoietic stem cells; test: G0/G1 cell cycle of sorted haematopoietic stem cells, 2 h incubation (Example 17); format: cell-based; settings: 2 hours incubation with growth factors
Experimental: Mouse C57B1/6 Haematopoietic stem cells were enriched with bone marrow cells by magnetic sorting. Only cells expressing surface tyrosine kinase were sorted. Cells were incubated for 2 hours with growth factors (IL-3 10 ng/ml, IL-6 10 ng/ml, SCF 50 ng/ml) and TRQ and its enantiomers, E1 and E2.
After 2 hours of incubation, cells were washed and incubated with […] for 30 minutes read by FACS scan.

[5] = molecular target: T2, Organic Cation Transporter-3 (OCT-3) (Mus musculus, UniProt Q9WTW5); test: Histamine uptake by bone marrow cells; format: cell-based, murine
T2 construct: from tissue; host or cells: total bone marrow cells
T2 sequence (Q9WTW5 1-551): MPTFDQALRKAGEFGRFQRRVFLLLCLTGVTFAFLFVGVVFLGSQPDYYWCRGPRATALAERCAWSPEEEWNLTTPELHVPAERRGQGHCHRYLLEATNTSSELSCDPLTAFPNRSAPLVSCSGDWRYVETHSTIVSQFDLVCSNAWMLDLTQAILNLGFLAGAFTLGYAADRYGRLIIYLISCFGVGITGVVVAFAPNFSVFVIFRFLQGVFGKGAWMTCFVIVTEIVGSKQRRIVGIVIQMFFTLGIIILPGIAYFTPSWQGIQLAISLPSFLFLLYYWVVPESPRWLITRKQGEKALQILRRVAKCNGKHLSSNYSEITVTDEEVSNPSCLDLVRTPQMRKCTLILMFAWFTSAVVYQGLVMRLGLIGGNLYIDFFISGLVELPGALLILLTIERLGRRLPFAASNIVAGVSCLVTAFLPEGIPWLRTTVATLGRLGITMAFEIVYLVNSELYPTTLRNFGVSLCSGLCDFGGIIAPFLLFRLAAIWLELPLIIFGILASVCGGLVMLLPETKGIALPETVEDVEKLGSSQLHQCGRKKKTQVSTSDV
Experimental: Cell cultures. Bone marrow (BM) cells were prepared as reported (Schneider, et al. J. Immunol. 139:3710-717) and adjusted to a final concentration of 2.5×10^6 per ml in culture medium (MEM) supplemented with 10% horse serum. Various doses (10^−5-10^−7 M) of Clobenpropit or Tritoqualine were added shortly before the addition of IL-3 (1 ng/ml), followed by a 24-h incubation at 37° C., 5% CO2.
Cytokine assays, measurement of histamine production, and uptake. IL-6 and IL-4 production was measured in cell supernatants recovered after a 24-h incubation. Histamine was quantified by an automated continuous flow spectrofluorometric technique (Schneider, et al. J. Immunol. 139:3710-717). For binding experiments, 10^6 total BM cells were plated in round-bottomed 96-well polypropylene plates (Costar). Unless stated otherwise, the cells were incubated (37° C., 5% CO2) for 3 h with 3 μCi/ml of [^3H]histamine dihydrochloride (2.5×10^−7 M; 12 Ci/mmol) in a final volume of 100 μl. Competition assays were performed as previously described (Corbel, S., et al. 1995. Blood. 86:531-539; Corbel, S., et al. 1995, FEBS Lett. 404:289-293). Each experiment was performed in triplicate, and histamine binding was calculated from total cpm after subtraction of nonspecific binding to filters.

c-kit+ BM cells = test: Cell cycle status of c-kit+ BM cells with pertussis toxin; format: cell-based, murine; settings: 10 μM, 2 h
Experimental: Progenitor-enriched murine c-kit^+ BM or cord blood-derived CD34^+ cells were prepared by positive magnetic selection, suspended at a final concentration of 10^5 per ml in serum-free StemSpan medium (StemCell Technologies) and cultured up to 3 days in the presence of 10 ng of IL-3, 10 ng of IL-6 and 50 ng of SCF (Stem Cell Factor) per ml, with or without Clobenpropit (10^−5 M), Tritoqualine or both.
Magnetically sorted c-kit^+ BM cells were incubated for 2 h in StemSpan medium with growth factor cocktail alone or in the presence of 10^−5 M Clobenpropit, Tritoqualine or enantiomers. The cell cycle status was then assessed using Vybrant DyeCycle Violet (VDV) Stain (Invitrogen), according to the manufacturer's instructions.
The effect of Bordetella pertussis toxin (PTX; 100 ng/ml), an inhibitor of Gi/o coupling to the H4R, on the cell cycle arrest promoted by receptor activation was evaluated in the same conditions. After incubation, cells were analyzed using FlowJo software.

[6] = 10 μM, compared to control (GF only)

CCOc1c(N)c2c(c(OCC)c1OCC)C(C1c3c(cc4c(c3OC)OCO4)CCN1C)OC2=O (racemic) [Tritoqualine, 7-Amino-4,5,6-triethoxy-3-(5,6,7,8-tetrahydro-4-methoxy-6-methyl-1,3-dioxolo[4,5-g]isoquinolin-5-yl) phthalide]
inhibition of proliferation of CFC ([1]; Example 16, 10 μM, IL-3 10 ng/ml, listed as TRQ): more potent inhibitor of cell proliferation than the Clobenpropit | inhibitory activity of cell proliferation (CFC) ([1]; 1 μM): less inhibitory activity in comparison to 10 μM CB | effect on biogenic monoamine uptake by SERT ([2]; listed as TRQ): do not significantly alter; also recorded: does not affect | percentage of cells at the G0/G1 phase / inhibitory activity of cell proliferation ([3]; 1 μM, listed as TRQ): also increased the percentage of cells at the G0/G1 phase | percentage of cells at the G0/G1 phase / inhibitory activity of cell proliferation ([3]; 1 μM, listed as racemic TRQ): less inhibitory activity in comparison to 10 μM CB | percentage of cells at the G0/G1 phase / inhibitory activity of cell proliferation [3, 6]: also increased the percentage of cells at the G0/G1 phase | inhibition of G0/G1 phase [4]: approximately 50% | effect on biogenic monoamine uptake by OCT-3 ([5]; listed as TRQ): do not significantly alter; also recorded: does not affect

CCOc1c(N)c2c(c(OCC)c1OCC)[C@H]([C@H]1c3c(cc4c(c3OC)OCO4)CCN1C)OC2=O [E1]
H4R agonist activity (percentage of cells at the G0/G1 phase) (c-kit+ BM cells): H4R agonist activity similar to the one of CB | inhibitory activity of cell proliferation (CFC) ([1]; 10 μM): slightly more potent than isomer E2 | inhibition of serotonin uptake ([2]; 1 μM): negligible | inhibition of serotonin uptake ([2]; 10 μM): greatly reduced | percentage of cells at the G0/G1 phase / inhibitory activity of cell proliferation ([3]; 1 μM): higher percentage of cells at the G0/G1 phase than the racemic TRQ | percentage of cells at the G0/G1 phase / inhibitory activity of cell proliferation [3, 6]: slightly more potent than isomer E2 | inhibition of G0/G1 phase [4]: approximately 50% | inhibition of histamine uptake ([5]; 1 μM): negligible | inhibition of histamine uptake ([5]; 10 μM): greatly reduced

CCOc1c(N)c2c(c(OCC)c1OCC)[C@@H]([C@@H]1c3c(cc4c(c3OC)OCO4)CCN1C)OC2=O [E2]
H4R agonist activity (percentage of cells at the G0/G1 phase) (c-kit+ BM cells): H4R agonist activity similar to the one of CB | inhibitory activity of cell proliferation (CFC) ([1]; 10 μM): exerted inhibitory activity of cell proliferation | inhibition of serotonin uptake ([2]; 1 μM): negligible | inhibition of serotonin uptake ([2]; 10 μM): greatly reduced | percentage of cells at the G0/G1 phase / inhibitory activity of cell proliferation ([3]; 1 μM): higher percentage of cells at the G0/G1 phase than the racemic TRQ | percentage of cells at the G0/G1 phase / inhibitory activity of cell proliferation [3, 6]: exerted inhibitory activity of cell proliferation | inhibition of G0/G1 phase [4]: 57% | inhibition of histamine uptake ([5]; 1 μM): negligible | inhibition of histamine uptake ([5]; 10 μM): greatly reduced
